Entries after “also recorded” stand apart in the source; their conditions may differ.
How the values were obtained:
[1] = target: T1, AR (Homo sapiens, UniProt P10275); assay type: cell-based; design: rows headed: IC50 (nM) Reporter; Fold induction, AR response reporter; agonistic activity on AR response reporter (w); details: 125 nM to 1000 nM, FIG. 3
T1 sequence (P10275 1-920): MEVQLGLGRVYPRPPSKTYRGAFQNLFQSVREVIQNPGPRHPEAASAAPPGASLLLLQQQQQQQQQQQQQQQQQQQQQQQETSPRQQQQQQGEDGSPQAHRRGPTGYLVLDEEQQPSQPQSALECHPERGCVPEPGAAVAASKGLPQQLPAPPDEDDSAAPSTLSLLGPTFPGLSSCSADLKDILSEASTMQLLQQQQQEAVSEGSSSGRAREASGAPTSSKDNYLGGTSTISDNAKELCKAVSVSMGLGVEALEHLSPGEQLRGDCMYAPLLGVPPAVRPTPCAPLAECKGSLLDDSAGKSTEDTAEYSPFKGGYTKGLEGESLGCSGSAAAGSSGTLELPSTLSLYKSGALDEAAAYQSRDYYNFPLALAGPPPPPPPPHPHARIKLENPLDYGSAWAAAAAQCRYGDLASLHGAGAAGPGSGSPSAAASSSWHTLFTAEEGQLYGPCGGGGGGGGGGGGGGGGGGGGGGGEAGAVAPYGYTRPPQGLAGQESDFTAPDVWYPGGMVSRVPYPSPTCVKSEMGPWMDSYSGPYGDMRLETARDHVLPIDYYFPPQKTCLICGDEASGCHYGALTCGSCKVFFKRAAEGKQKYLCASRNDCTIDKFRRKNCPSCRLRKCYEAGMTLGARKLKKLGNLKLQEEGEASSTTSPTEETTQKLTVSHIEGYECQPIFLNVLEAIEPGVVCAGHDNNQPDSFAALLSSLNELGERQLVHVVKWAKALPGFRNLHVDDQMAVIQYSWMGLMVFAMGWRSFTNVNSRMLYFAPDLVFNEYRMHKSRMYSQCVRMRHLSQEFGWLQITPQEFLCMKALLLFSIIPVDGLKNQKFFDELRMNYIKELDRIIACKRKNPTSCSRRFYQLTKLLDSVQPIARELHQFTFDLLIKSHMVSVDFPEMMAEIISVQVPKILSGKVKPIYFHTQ
Procedure: The compounds were subjected to tests using an artificial AR response reporter system in a hormone refractory prostate cancer cell line. […] After two days of incubation, reporter activities were assayed.

[2] = test system: AR-overexpressed LNCaP xenograft tumors; experiment: AR-overexpressed LNCaP xenograft model in castrated SCID mice; assay type: in vivo
Procedure: FIG. 7 is a graph of tumor size. AR overexpressing LNCaP cells were injected in the flanks of castrated SCID mice, subcutaneously. When tumors reached about 100 cubic mm, they were randomized into five groups. Each group had nine animals. […]. The tumors were measured three-dimensionally, width, length and depth, using a caliper.
FIG. 8 depicts experimental results of tumor size. At day 18, the animals were imaged via an optical CCD camera, 3 hours after last dose of treatment. A ROI was drawn over the tumor for luciferase activity measurement in photon/second. The right panels is a representation of the ROIs measurements.
Compounds of the invention are used to examine if the diaryihydantoin derivatives have in vivo effects on hormone refractory prostate cancer. First we examine this compound on xenograft tumors established from AR-overexpressed LNCaP cells. Engineered cells in Matrigel (Collaborative Biomedical) are injected subcutaneously into the flanks of the castrated male SCID mice. Tumor size is measured weekly in three dimensions using calipers. After xenograft tumors established (tumor size at least 40 mm^3), mice with tumors are randomized and treated with different doses of compounds orally once daily. The inhibitory effect on growth of AR-overexpressed LNCaP xenograft model is studied as follows. Mice with established LN-AR xenograft tumors are randomized and treated with indicated compounds orally once daily. Tumor size are measured by caliber.
All animal experiments were performed in compliance with the guidelines of the Animal Research Committee of the University of California at Los Angeles. Animals were bought from Taconic and maintained in a laminar flow tower in a defined flora colony. LNCaP-AR and LNCaP-vector cells were maintained in RPMI medium supplemented with 10% FBS. 10^6 cells in 100 μl of 1:1 Matrigel to RPMI medium were injected subcutaneously into the flanks of intact or castrated male SCID mice. Tumor size was measured weekly in three dimensions (length×width×depth) using calipers. Mice were randomized to treatment groups when tumor size reached approximately 100 mm^3. Drugs were given orally every day at 10 mg/kg and 50 mg/kg. To obtain pharmacodynamic readout, the animals were imaged via an optical CCD camera, 3 hours after last dose of the treatment. A ROI is drawn over the tumor for luciferase activity measurement in photon/second. The right panels were a representation of the ROIs measurements. […]

[3] = target: T1, AR; assay type: cell-based; design: Fold induction, AR response reporter
Procedure: It is well established that PSA levels are indicators of AR activities in prostate cancer. […] The LNCaP-AR cells are a line of lymph node carcinoma of prostate cells transduced with a plasmid that makes express androgen receptors. […] After four days incubation, secreted PSA levels were assayed using PSA ELISA kits (American Qualex, San Clemente, Calif.)

[4] = test system: urogenital tract; experiment: Luciferase transgenic mice with testosterone pellet, urogenital tract weight and photon emission (FIG. 22); assay type: in vivo; details: castrated mice with testosterone pellet, 10 mg/kg per day, 14 days
Procedure: FIG. 22 presents results of an experiment conducted with wild type nontransgenic mice (WT), castrated luciferase transgenic mice (Cast), and non-castrated luciferase transgenic mice (Intact). Data are shown for castrated luciferase transgenic mice treated with an implanted testosterone pellet yielding 12.5 mg per kilogram body weight with a 90 day release period (T/Cast), and data are shown for non-castrated luciferase transgenic mice treated with an implanted testosterone pellet yielding 12.5 mg per kilogram body weight with a 90 day release period (Intact+T). […]. (A) Urogenital tract weight at 14 days. (B) Photon emission rate at 14 days. In all cases, a hormone refractory disease state was not induced.
[…]. Moreover, the higher the dose, the lower the PSA level. […]. The weight and rate of photon emission increased for both intact and castrated mice.

[5] = test system: LNCaP hormone sensitive xenograft; experiment: LNCaP hormone sensitive xenograft model
Procedure: Each set included 6 mice. The mice were treated with 10 mg/kg per day.

[6] = LogP; assay type: physicochemical
[7] = test system: LN-AR(HR) cell line tumors; experiment: LN-AR(HR) cell line tumors in SCID mice (FIG. 19); assay type: in vivo; details: 10 mg per kg body weight per day
Source text: (A) The relative tumor volume as a function of time shown for each set of mice. (B) Images of each set of mice with photon emission associated with luciferase activity at day 31 shown as color contours. (C) Rate of photon emission associated with luciferase activity shown at several times for each set of mice.

CNC(=O)c1ccc(N2C(=S)N(c3ccc(C#N)c(C(F)(F)F)c3)C(=O)C23CCC3)cc1F [NC53, N-methyl-4-[7-(4-cyano-3-trifluoromethylphenyl)-8-oxo-6-thioxo-5,7-diaza-spiro[3.4]oct-5-yl]-2-fluorobenzamide]
luciferase activity in LNCaP-AR cells [1]: acted to reduce luciferase activity
photon emission associated with luciferase activity ([2]; FIG. 8, day 18, relative to vehicle): photon emission decreased
tumor growth / tumor volume ([2]; oral once daily, FIG. 7: 10 or 50 mg/kg, 18 days): effective to prevent tumor growth and even to cause tumor shrinkage, and was distinctly more effective than bicalutamide; also recorded: tumors decreased in size
PSA levels of LN-AR cells ([3]; 100, 200, 500, and 1000 nM, FIG. 20): PSA levels of LN-AR cells decreased
PSA levels ([3]; LN-AR cells, FIG. 23): PSA levels decreased
urogenital tract weight and photon emission [4]: decrease in weight and photon emission
rate of tumor growth (tumor volume) ([5]; 10 mg/kg per day, FIG. 6): slower than mice treated with vehicle solution
PSA levels ([5]; FIG. 16, relative to vehicle solution): PSA levels decreased
logP [6]: 3.2
tumor size and photon emission associated with luciferase activity [7]: decrease or stabilization of tumor size and a decrease in photon emission associated with luciferase activity

— US8648105B2, “Diarylthiohydantoin compounds” (The Regents of the University of California, priority 2006, dated 2014)
